The test system of this assay is P388 leukemia ip, CD2F1 mice, survival T/C. The assay is described as follows: NCI In Vivo Anticancer Drug Screen. Data for tumor model P388 Leukemia (intraperitoneal) in CD2F1 (CDF1) mice. Conditions: endpoint: median survival time, higher = longer survival. In short, it runs like this: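 Mice carrying the transplanted tumor received test compound or vehicle. Survival was recorded in each group, and the value is the treated-group measurement divided by that of the vehicle-treated control group.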

[1] abbreviates: dose: 60.0 mg/kg/injection, schedule: Q01DX005 (ip), vehicle: saline with Tween-80.
The mark [2] stands for this setting: dose: 100.0 mg/kg/injection, schedule: Q04DX003 (ip), vehicle: saline with Tween-80.
Where [3] appears, read: dose: 25.0 mg/kg/injection, schedule: Q01DX009 (ip), vehicle: saline.
[4] abbreviates: dose: 50.0 mg/kg/injection, schedule: Q01DX005 (ip), vehicle: saline.
Setting [5] is: dose: 100.0 mg/kg/injection, schedule: Q01DX005 (ip), vehicle: saline.
The mark [6] stands for this setting: dose: 100.0 mg/kg/injection, schedule: Q04DX002 (ip), vehicle: saline with Tween-80.
The mark [7] stands for this setting: dose: 200.0 mg/kg/injection, schedule: Q04DX002 (ip), vehicle: saline with Tween-80.
Where [8] appears, read: dose: 60.0 mg/kg/injection, schedule: Q01DX005 (ip), vehicle: Klucel (hydroxypropylcellulose) (HPC).
Where [9] appears, read: dose: 120.0 mg/kg/injection, schedule: Q01DX005 (ip), vehicle: Klucel (hydroxypropylcellulose) (HPC).

“And” between values parts separate entries of the source, which are not always exact repeats. Equal values may be shown once. Inconclusive results and toxic doses are left out.

For the compound `CC(=O)Nc1[nH]ncc1C#N`, the T/C was 98 % of control under setting [1]; 107 % of control (dose: 120.0 mg/kg/injection, schedule: Q01DX005 (ip), vehicle: saline with Tween-80); 101 % of control (dose: 240.0 mg/kg/injection, schedule: Q01DX005 (ip), vehicle: saline with Tween-80).
For the compound `CC1(CO)COC(c2ccc(Cl)cc2)N1` (centres undefined), the T/C is, setting by setting: (dose: 50.0 mg/kg/injection, schedule: Q01DX005 (ip), vehicle: acetone) 106 % of control; (dose: 100.0 mg/kg/injection, schedule: Q01DX005 (ip), vehicle: acetone) 106 % of control; (dose: 200.0 mg/kg/injection, schedule: Q01DX005 (ip), vehicle: acetone) 112 % of control.
On to `CCN(CCO)CC(C)Nc1ccc([N+](=O)[O-])c2sc3ccccc3c(=O)c12` (centres undefined), for which the T/C (dose: 25.0 mg/kg/injection, schedule: Q01DX009 (ip), vehicle: saline with Tween-80) was 159 % of control; the T/C (dose: 50.0 mg/kg/injection, schedule: Q01DX009 (ip), vehicle: saline with Tween-80) was 190 % of control and 213 % of control; the T/C (dose: 66.0 mg/kg/injection, schedule: Q04DX003 (ip), vehicle: saline with Tween-80) was 159 % of control; the T/C (dose: 100.0 mg/kg/injection, schedule: Q01DX009 (ip), vehicle: saline with Tween-80) was 100 % of control; the T/C under setting [2] is 213 % of control; the T/C (dose: 150.0 mg/kg/injection, schedule: Q04DX003 (ip), vehicle: saline with Tween-80) was 118 % of control.
As to `CC1[C@@]2(O[C@@H]3C=C4C5CCC6Cc7nc8c(nc7C[C@@]6(C)C5C[C@H](O)[C@@]4(C)[C@]13O)CC1CCc3c(cc4c5c3C(O)C[C@H]5[C@@H](C)C3(O4)OC(C)(C)CC3O)[C@]1(C)C8)O[C@@](C)(CO)C[C@@H]2O` (some centres undefined), the T/C (dose: 12.5 micrograms/kg/injection, schedule: Q01DX009 (ip), vehicle: saline + alcohol) was 109 % of control; the T/C (dose: 25.0 micrograms/kg/injection, schedule: Q01DX009 (ip), vehicle: saline + alcohol) was 107 % of control; the T/C (dose: 100.0 micrograms/kg/injection, schedule: Q01DX009 (ip), vehicle: saline + alcohol) is 98 % of control.
On to `CCCCCCCCCCCC[n+]1cc2ccccc2cc1C`, for which, for the setting “dose: 6.25 mg/kg/injection, schedule: Q01DX005 (ip), vehicle: saline with Tween-80”, the T/C was 115 % of control and 122 % of control.
In the case of `Cc1cc(NCCCCCCNc2cc(C)[n+](C)c3ccccc23)c2ccccc2[n+]1C`, the T/C is 101 % of control (dose: 3.12 mg/kg/injection, schedule: Q01DX005 (ip), vehicle: suspension in saline); 106 % of control (dose: 6.25 mg/kg/injection, schedule: Q01DX005 (ip), vehicle: suspension in saline); 115 % of control (dose: 12.5 mg/kg/injection, schedule: Q01DX005 (ip), vehicle: suspension in saline).
On to `N#Cc1cnc2nc1NCCCCCCC2`, for which the T/C by setting is: (dose: 25.0 mg/kg/injection, schedule: Q04DX003 (ip), vehicle: saline with Tween-80) 105 % of control; (dose: 50.0 mg/kg/injection, schedule: Q04DX003 (ip), vehicle: saline with Tween-80) 98 % of control; under setting [2], 100 % of control.
Regarding `CC(CCCN)Nc1cc2c(c3cccnc13)OCCO2` (centres undefined), the T/C was 90 % of control (dose: 6.25 mg/kg/injection, schedule: Q01DX009 (ip), vehicle: saline); 86 % of control (dose: 12.5 mg/kg/injection, schedule: Q01DX009 (ip), vehicle: saline); 100 % of control under setting [3].
On to `CC(=O)Nc1ccc(S(=O)(=O)n2c(=O)oc3ccc(Br)cc32)cc1`, for which the T/C was 98 % of control (dose: 50.0 mg/kg/injection, schedule: Q01DX005 (ip), vehicle: Klucel (hydroxypropylcellulose) (HPC)); 100 % of control (dose: 100.0 mg/kg/injection, schedule: Q01DX005 (ip), vehicle: Klucel (hydroxypropylcellulose) (HPC)); 99 % of control (dose: 200.0 mg/kg/injection, schedule: Q01DX005 (ip), vehicle: Klucel (hydroxypropylcellulose) (HPC)).
Turning to `O=C(O)C(c1ccccc1)N1C(=O)C(Cl)=C(Cl)C1=O` (centres undefined), the T/C was 94 % of control (dose: 15.0 mg/kg/injection, schedule: Q01DX005 (ip), vehicle: saline with Tween-80); 100 % of control (dose: 30.0 mg/kg/injection, schedule: Q01DX005 (ip), vehicle: saline with Tween-80); 103 % of control and 112 % of control under setting [1].
Consider `O=S(=O)(N/N=C/c1ccncc1)c1ccccc1`, for which the T/C reads like this: (dose: 12.5 mg/kg/injection, schedule: Q01DX009 (ip), vehicle: other) 110 % of control and 121 % of control; (dose: 25.0 mg/kg/injection, schedule: Q01DX009 (ip), vehicle: other) 116 % of control; (dose: 100.0 mg/kg/injection, schedule: Q01DX009 (ip), vehicle: other) 157 % of control.
Turning to `CCCCNC1(N(C)C)N=C(N(C)C)N=C(N(C)C)O1` (centres undefined), the T/C is 88 % of control under setting [4]; 89 % of control under setting [5]; 95 % of control (dose: 200.0 mg/kg/injection, schedule: Q01DX005 (ip), vehicle: saline).
For the compound `Cc1cccc2c1/C(=C1/c3ccccc3C(=O)c3cccc(C)c31)c1ccccc1C2=O`, the T/C is 87 % of control (dose: 50.0 mg/kg/injection, schedule: Q01DX005 (ip), vehicle: Klucel + Tween-80) and 90 % of control (dose: 100.0 mg/kg/injection, schedule: Q01DX005 (ip), vehicle: Klucel + Tween-80).
With `CC1CC[N+](C)([B-](F)(F)F)CC1` (centres undefined), the T/C is 100 % of control under setting [4] and 106 % of control under setting [5].
As for `N#CC(c1ccccc1)c1nccc2ccccc12` (centres undefined), the T/C reads like this: under setting [6], 99 % of control; under setting [7], 100 % of control.
In the case of `COC(=O)C1CC(OC(C)=O)C(O)C(O)C1OC(C)=O.[O]=[Os]=[O]` (centres undefined), the T/C (dose: 200.0 mg/kg/injection, schedule: Q01DX001 (ip), vehicle: saline) is 123 % of control.
Consider `COc1cccc(-c2nnc(-c3nc[nH]c3C)o2)c1`, for which the T/C (dose: 100.0 mg/kg/injection, schedule: Q04DX002 (ip), vehicle: Klucel (hydroxypropylcellulose) (HPC)) is 100 % of control and the T/C (dose: 200.0 mg/kg/injection, schedule: Q04DX002 (ip), vehicle: Klucel (hydroxypropylcellulose) (HPC)) was 95 % of control.
Take `C[N+]1(CC(=O)O)C2CCC1CC(O)C2` (centres undefined): the T/C is 108 % of control under setting [3]; 98 % of control and 100 % of control (dose: 50.0 mg/kg/injection, schedule: Q01DX009 (ip), vehicle: saline); 101 % of control (dose: 100.0 mg/kg/injection, schedule: Q01DX009 (ip), vehicle: saline); 101 % of control and 96 % of control (dose: 200.0 mg/kg/injection, schedule: Q01DX009 (ip), vehicle: saline).
For `CCOC(=O)C1=CNN=CC12C(=O)NC(=Nc1ccccc1)N2c1ccccc1` (centres undefined), the T/C reads like this: under setting [6], 93 % of control; under setting [7], 104 % of control; (dose: 400.0 mg/kg/injection, schedule: Q04DX002 (ip), vehicle: saline with Tween-80) 95 % of control.
As to `CC[N+](CC)=c1ccc2nc3c(cc(Nc4ccccc4)c4ccccc43)oc-2c1.[Cl][Zn][Cl]`, the T/C is, setting by setting: under setting [8], 98 % of control; under setting [9], 107 % of control.
For `CCC[C@H]1[C@H](CCC)[C@@]2(OC(=O)C3=C2CCC=C3)[C@]12OC(=O)C1=C2CCC=C1`, the T/C was 98 % of control (dose: 11.25 mg/kg/injection, schedule: Q01DX005 (ip), vehicle: Klucel (hydroxypropylcellulose) (HPC)); 90 % of control (dose: 22.5 mg/kg/injection, schedule: Q01DX005 (ip), vehicle: Klucel (hydroxypropylcellulose) (HPC)); 88 % of control (dose: 45.0 mg/kg/injection, schedule: Q01DX005 (ip), vehicle: Klucel (hydroxypropylcellulose) (HPC)); 100 % of control (dose: 90.0 mg/kg/injection, schedule: Q01DX005 (ip), vehicle: Klucel (hydroxypropylcellulose) (HPC)).
Regarding `C/C(=N\NC(=S)N1CCN(Cc2ccccc2)CC1)c1ccccn1`, the T/C was 118 % of control (dose: 3.13 mg/kg/injection, schedule: Q01DX005 (ip), vehicle: saline with Tween-80) and 152 % of control (dose: 12.5 mg/kg/injection, schedule: Q01DX005 (ip), vehicle: saline with Tween-80).
Consider `CCOC(=O)c1cnc2cc(F)ccc2c1Nc1ccc2c(c1)OCO2`, for which the T/C under setting [8] was 99 % of control; the T/C under setting [9] was 97 % of control; the T/C (dose: 240.0 mg/kg/injection, schedule: Q01DX005 (ip), vehicle: Klucel (hydroxypropylcellulose) (HPC)) was 105 % of control.

For the origin of these results see PubChem BioAssay AID330 (DTP/NCI, 2004).
